In patent USRE48267E1, “Variants of C-type natriuretic peptide” (priority 2009, dated 2020):
Where a SMILES comes first, the peptide text is derived from it. Bridges are numbered along the chain shown (N, C = ends). Where no end group is shown, it is not given here. [ ]: non-standard residue; d: D form. Cit = NC(=O)NCCC[C@H](N)C(=O)O

Columns and labels:
NPR-B = target: T1, NPR-B (Mus musculus, UniProt Q6VVW5); experiment: stimulation of cGMP production in NIH3T3 cells; assay type: cell-based, murine; conditions: for cGMP Response rel. to 1 uM CNP22, 10 nM: NIH3T3 cells exposed to 10 nM peptide; for cGMP Response rel. to 1 uM CNP22, 10 nM / cGMP Response rel. to 1 uM CNP22, 1 uM: normalized to cell number and cGMP production in the presence of 1 uM wtCNP22; for cGMP Response rel. to 1 uM CNP22, 1 uM: NIH3T3 cells exposed to 1 uM peptide
T1 construct: Murine NIH3T3 cells express endogenously the CNP signaling receptor, NPR-B; endogenous in cells; host or cells: NIH3T3
T1 sequence (Q6VVW5 17-1047): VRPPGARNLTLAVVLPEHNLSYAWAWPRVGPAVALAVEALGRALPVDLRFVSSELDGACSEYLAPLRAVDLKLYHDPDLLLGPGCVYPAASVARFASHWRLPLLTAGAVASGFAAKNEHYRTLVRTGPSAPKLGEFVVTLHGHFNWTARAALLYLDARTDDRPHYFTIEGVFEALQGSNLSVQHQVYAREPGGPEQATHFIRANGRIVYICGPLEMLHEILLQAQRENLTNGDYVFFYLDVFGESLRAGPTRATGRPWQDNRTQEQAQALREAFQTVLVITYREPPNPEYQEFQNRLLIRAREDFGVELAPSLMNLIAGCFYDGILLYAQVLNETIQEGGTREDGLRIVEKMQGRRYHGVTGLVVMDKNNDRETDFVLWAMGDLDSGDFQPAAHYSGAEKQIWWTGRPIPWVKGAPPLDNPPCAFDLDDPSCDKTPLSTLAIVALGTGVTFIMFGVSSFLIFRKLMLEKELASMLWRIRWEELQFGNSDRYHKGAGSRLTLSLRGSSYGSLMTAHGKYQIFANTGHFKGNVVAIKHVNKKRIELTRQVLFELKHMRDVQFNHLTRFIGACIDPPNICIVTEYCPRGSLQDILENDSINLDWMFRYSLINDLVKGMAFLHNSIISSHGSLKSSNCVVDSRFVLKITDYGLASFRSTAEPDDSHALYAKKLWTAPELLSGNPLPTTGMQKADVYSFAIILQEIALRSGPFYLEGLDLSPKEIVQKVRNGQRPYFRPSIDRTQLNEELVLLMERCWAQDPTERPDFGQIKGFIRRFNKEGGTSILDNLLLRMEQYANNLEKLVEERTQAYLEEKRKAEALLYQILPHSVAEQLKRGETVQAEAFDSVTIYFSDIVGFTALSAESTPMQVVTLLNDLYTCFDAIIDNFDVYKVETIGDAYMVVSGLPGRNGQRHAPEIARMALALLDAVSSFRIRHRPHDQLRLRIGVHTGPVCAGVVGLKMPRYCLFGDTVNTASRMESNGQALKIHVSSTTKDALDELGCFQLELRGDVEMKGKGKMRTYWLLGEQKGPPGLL
Method: To determine the functional activity of CNP variants, the production of cGMP was measured in NIH3T3 cells exposed to the CNP variants. Murine NIH3T3 cells express endogenously the CNP signaling receptor, NPR-B, which shares 98% protein sequence identity with human NPR-B. NIH3T3 cells were cultured in high glucose Dulbecco's Modified Eagle Medium supplemented with 10% fetal calf serum and antibiotics at 37° C. with 5% CO2). Twenty four to 48 hours prior to signaling, cells were passaged to 12-well plates with a density of 2-5×10^5 cells per well at the time of the assay. CNP variants were resuspended in 1 mM HCl to a stock concentration of 1 mg/mL (455 uM for wtCNP22) and subsequently diluted to a 30 uM working stock solution with phosphate-buffered saline (PBS). Ten-fold serial dilutions were prepared in phosphate-buffered saline. Culture medium was removed from the cells and replaced with 0.4 mL PBS/Dulbecco's modified Eagle medium (50/50, v/v) containing 0.75 mM isobutylmethylxanine. Plates were incubated at 37° C., 5% CO2 for 15 minutes before addition of 0.2 mL CNP variant in PBS and continued incubation at 37° C. for 15 minutes. Reactions were stopped by the addition of 0.2 mL lysis buffer supplied with the CatchPoint cGMP assay kit (Molecular Devices), and cGMP production was determined with the CatchPoint cGMP Assay (Molecular Devices). All stimulation experiments were performed in duplicate.
Tables 1-4 summarize the ability of CNP variants having backbone or side chain modifications, amino acid substitutions, N-terminal amino acid extensions, and/or N-terminal PEGylation, respectively, to stimulate cGMP production in NIH3T3 cells. In all four tables, the values for cGMP production in NIH3T3 cells exposed to 10 nM or 1 uM CNP variant are normalized to cell number and cGMP production in the presence of 1 uM wtCNP22.

Recombinant human NEP = Recombinant human NEP (Homo sapiens, UniProt P08473); experiment: in vitro NEP cleavage assay (disappearance of non-cleaved CNP variant)
Recombinant human NEP, sequence (P08473 whole entry): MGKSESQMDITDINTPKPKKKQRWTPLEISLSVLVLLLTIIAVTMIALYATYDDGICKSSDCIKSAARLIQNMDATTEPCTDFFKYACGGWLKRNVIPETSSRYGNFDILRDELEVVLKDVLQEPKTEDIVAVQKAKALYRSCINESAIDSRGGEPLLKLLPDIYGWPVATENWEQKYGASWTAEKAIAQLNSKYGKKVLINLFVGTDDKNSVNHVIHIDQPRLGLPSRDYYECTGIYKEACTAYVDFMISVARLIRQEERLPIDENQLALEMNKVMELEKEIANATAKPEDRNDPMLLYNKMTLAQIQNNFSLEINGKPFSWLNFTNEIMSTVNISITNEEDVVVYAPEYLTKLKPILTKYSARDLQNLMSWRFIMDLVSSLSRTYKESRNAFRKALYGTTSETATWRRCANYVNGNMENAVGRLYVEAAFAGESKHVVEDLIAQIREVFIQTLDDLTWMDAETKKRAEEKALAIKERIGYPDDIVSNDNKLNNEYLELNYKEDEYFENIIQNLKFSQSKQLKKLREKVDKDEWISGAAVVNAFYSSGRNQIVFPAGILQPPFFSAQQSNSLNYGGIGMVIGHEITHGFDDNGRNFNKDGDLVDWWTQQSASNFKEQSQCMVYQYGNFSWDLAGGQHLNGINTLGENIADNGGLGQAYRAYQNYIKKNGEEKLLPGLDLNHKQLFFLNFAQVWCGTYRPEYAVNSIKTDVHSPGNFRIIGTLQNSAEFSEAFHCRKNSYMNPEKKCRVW
Method: To determine the effects of amino acid substitutions, amino acid extensions, backbone modifications, side chain modifications and PEGylation on the susceptibility of CNP variants to neutral endopeptidase (NEP) cleavage, peptide cleavage assays were carried out using an in vitro assay that monitored disappearance of the non-cleaved CNP variant.
Recombinant human NEP (1 ug/mL final concentration) was added to 100 uM CNP variant diluted in 0.1 M Tris, pH 7. The reaction mixture was incubated at 37° C. for various periods of time, and the reaction was quenched with EDTA (10 mM final) followed by heat denaturation. The reaction mixture was reduced and then the reaction products were analyzed using HPLC and mass spectroscopy. The half-life of the CNP variant was calculated based on the disappearance of intact CNP variant over time.

CC[C@H](C)[C@@H]1NC(=O)[C@H](CCCNC(=N)N)NC(=O)[C@H](CC(=O)O)NC(=O)[C@H](CC(C)C)NC(=O)[C@H](CCCCN)NC(=O)[C@H](CC(C)C)NC(=O)CNC(=O)[C@H](Cc2ccccc2)NC(=O)[C@@H](NC(=O)CNC(=O)[C@H](CCCNC(=N)N)NC(=O)[C@H](CO)NC(=O)[C@H](CC(C)C)NC(=O)CN)CSSC[C@@H](C(=O)O)NC(=O)CNC(=O)[C@H](CC(C)C)NC(=O)CNC(=O)[C@H](CO)NC(=O)[C@H](CCSC)NC(=O)[C@H](CO)NC(=O)[C@H](CCCNC(N)=O)NC1=O [Analog AF, CNP22, K4R, G15Cit] (H-GLSRGCFGLKLDRI[Cit]SMSGLGC-OH; disulfide 6-22)
cGMP Response rel. to 1 uM CNP22, 10 nM (NPR-B): 1.4
cGMP Response rel. to 1 uM CNP22, 1 uM (NPR-B): 2

CC[C@H](C)[C@@H]1NC(=O)[C@H](CCCNC(=N)N)NC(=O)[C@H](CC(=O)O)NC(=O)[C@H](CC(C)C)NC(=O)[C@H](CCCCN)NC(=O)[C@H](CC(C)C)NC(=O)CNC(=O)[C@H](Cc2ccccc2)NC(=O)[C@@H](NC(=O)CNC(=O)[C@H](CCCCN)NC(=O)[C@H](CO)NC(=O)[C@H](CC(C)C)NC(=O)CNC(=O)[C@H](CCC(N)=O)NC(=O)[C@H](CCC(N)=O)NC(=O)[C@H](CC(N)=O)NC(=O)[C@H](C)NC(=O)CNC(=O)[C@H](Cc2c[nH]cn2)NC(=O)[C@@H]2CCCN2C(=O)[C@H](Cc2c[nH]cn2)NC(=O)[C@H](CCC(N)=O)NC(=O)[C@H](CCC(=O)O)NC(=O)[C@H](Cc2c[nH]cn2)NC(=O)[C@H](CO)NC(=O)[C@H](Cc2c[nH]cn2)NC(=O)[C@H](Cc2c[nH]cn2)NC(=O)CN)CSSC[C@@H](C(=O)O)NC(=O)CNC(=O)[C@H](CC(C)C)NC(=O)CNC(=O)[C@H](CO)NC(=O)[C@H](CCSC)NC(=O)[C@H](CO)NC(=O)CNC1=O [Analog CQ] (H-GHHSHEQHPHGANQQGLSKGCFGLKLDRIGSMSGLGC-OH; disulfide 21-37; N-terminus and C-terminus assumed)
cGMP Response rel. to 1 uM CNP22, 10 nM (NPR-B): 16
cGMP Response rel. to 1 uM CNP22, 1 uM (NPR-B): 95

CC[C@H](C)[C@@H]1NC(=O)[C@H](CCCNC(=N)N)NC(=O)[C@H](CC(=O)O)NC(=O)[C@H](CC(C)C)N(C)C(=O)[C@H](CCCCN)NC(=O)[C@H](CC(C)C)N(C)C(=O)CNC(=O)[C@H](Cc2ccccc2)NC(=O)[C@@H](NC(=O)CNC(=O)[C@H](CCCCN)NC(=O)[C@H](CO)NC(=O)[C@H](CC(C)C)NC(=O)CN)CSSC[C@@H](C(=O)O)NC(=O)CNC(=O)[C@H](CC(C)C)N(C)C(=O)CNC(=O)[C@H](CO)NC(=O)[C@H](CCSC)NC(=O)[C@H](CO)NC(=O)CNC1=O [Analog L, CNP22, N-methyl-L9, N-methyl-L11, N-methyl-L20]
resistance to NEP cleavage (in words) (Recombinant human NEP): substantially shorter half-life
cGMP Response rel. to 1 uM CNP22, 10 nM (NPR-B): 18
cGMP Response rel. to 1 uM CNP22, 1 uM (NPR-B): 10

CC[C@H](C)[C@@H]1NC(=O)[C@H](CCCNC(=N)N)NC(=O)[C@H](CC(=O)O)NC(=O)[C@H](CC(C)C)NC(=O)[C@H](CCCCN)NC(=O)[C@H](CC(C)C)N(C)C(=O)CNC(=O)[C@H](Cc2ccccc2)NC(=O)[C@@H](NC(=O)CNC(=O)[C@H](CCCCN)NC(=O)[C@H](CO)NC(=O)[C@H](CC(C)C)NC(=O)CN)CSSC[C@@H](C(=O)O)NC(=O)CNC(=O)[C@H](CC(C)C)N(C)C(=O)CNC(=O)[C@H](CO)NC(=O)[C@H](CCSC)NC(=O)[C@H](CO)NC(=O)CNC1=O [Analog K, CNP22, N-methyl-L9, N-methyl-L20]
NEP Cleavage (t1/2, min) (Recombinant human NEP; 100 uM peptide, 1 ug/mL NEP, 0.1 M Tris pH 7, 37° C., adjusted t1/2, CNP22 normalized to 80 min): 80 min
cGMP Response rel. to 1 uM CNP22, 10 nM (NPR-B): 1
cGMP Response rel. to 1 uM CNP22, 1 uM (NPR-B): 1

CC[C@H](C)[C@@H]1NC(=O)[C@H](CCCNC(=N)N)NC(=O)[C@H](CC(=O)O)NC(=O)[C@H](CC(C)C)NC(=O)[C@H](CCCCN)NC(=O)[C@H](CC(C)C)NC(=O)CNC(=O)[C@H](Cc2ccccc2)NC(=O)[C@@H](NC(=O)CNC(=O)[C@H](CCCCN)NC(=O)[C@H](CO)NC(=O)[C@H](CC(C)C)NC(=O)CNC(=O)[C@H](CCC(N)=O)NC(=O)[C@H](CCC(N)=O)NC(=O)[C@H](CC(N)=O)NC(=O)[C@H](C)NC(=O)CNC(=O)[C@H](Cc2c[nH]cn2)NC(=O)[C@@H](NC(=O)[C@H](CC(=O)O)NC(=O)[C@H](Cc2c[nH]cn2)NC(=O)[C@H](CCC(=O)O)NC(=O)[C@H](Cc2c[nH]cn2)NC(=O)[C@@H]2CCCN2C(=O)[C@H](Cc2c[nH]cn2)NC(=O)[C@H](Cc2c[nH]cn2)NC(=O)[C@H](C)NC(=O)CN)[C@@H](C)O)CSSC[C@@H](C(=O)O)NC(=O)CNC(=O)[C@H](CC(C)C)NC(=O)CNC(=O)[C@H](CO)NC(=O)[C@H](CCSC)NC(=O)[C@H](CO)NC(=O)CNC1=O [Analog CR] (H-GAHHPHEHDTHGANQQGLSKGCFGLKLDRIGSMSGLGC-OH; disulfide 22-38; N-terminus and C-terminus assumed)
cGMP Response rel. to 1 uM CNP22, 10 nM (NPR-B): 14 ± 5
cGMP Response rel. to 1 uM CNP22, 1 uM (NPR-B): 77 ± 12

CC[C@H](C)[C@@H]1NC(=O)[C@H](CCCNC(=N)N)NC(=O)[C@H](CC(=O)O)NC(=O)[C@H](CC(C)C)NC(=O)[C@H](CCCCN)NC(=O)[C@H](CC(C)C)NC(=O)CNC(=O)[C@H](Cc2ccccc2)NC(=O)[C@@H](NC(=O)CNC(=O)[C@H](CCCNC(=N)N)NC(=O)[C@H](CO)NC(=O)[C@H](CC(C)C)NC(=O)CN)CSSC[C@@H](C(=O)O)NC(=O)CNC(=O)[C@H](CC(C)C)NC(=O)CNC(=O)[C@H](CO)NC(=O)[C@H](CCSC)NC(=O)[C@H](CO)NC(=O)[C@H](CCCNC(=N)N)NC1=O [Analog AE, CNP22, K4R, G15R] (H-GLSRGCFGLKLDRIRSMSGLGC-OH; disulfide 6-22)
cGMP Response rel. to 1 uM CNP22, 10 nM (NPR-B): 0.3
cGMP Response rel. to 1 uM CNP22, 1 uM (NPR-B): 0.3

SPKMVQGSG-CNP17-KVLRRH (SPKMVQGSGCFGLKLDRIGSMSGLGCKVLRRH; disulfide 10-26 (inferred); ends not checked) [Analog CD]
NPR-B stimulation activity / cGMP production compared with wtCNP22 (in words) (NPR-B; NIH3T3 cells): comparable NPR-B stimulation activity as wtCNP22

CC[C@H](C)[C@@H]1NC(=O)[C@H](CCCNC(=N)N)NC(=O)[C@H](CC(=O)O)NC(=O)[C@H](CC(C)C)NC(=O)[C@H](CCCCN)NC(=O)[C@H](CC(C)C)NC(=O)CNC(=O)[C@H](Cc2ccccc2)NC(=O)[C@@H](NC(=O)CNC(=O)[C@H](CCCNC(=N)N)NC(=O)[C@H](CO)NC(=O)[C@H](CC(C)C)NC(=O)CN)CSSC[C@@H](C(=O)O)NC(=O)CNC(=O)[C@H](CC(C)C)NC(=O)CNC(=O)[C@H](CO)NC(=O)[C@H](C(C)C)NC(=O)[C@H](CO)NC(=O)CNC1=O [Analog AG, CNP22, K4R, M17V] (H-GLSRGCFGLKLDRIGSVSGLGC-OH; disulfide 6-22)
cGMP Response rel. to 1 uM CNP22, 10 nM (NPR-B): 10
cGMP Response rel. to 1 uM CNP22, 1 uM (NPR-B): 65
